Experimental data reported in US20240190855A1 (Relay Therapeutics, Inc., priority 2021, published 2024).

Target: T1, CDK2/Cyclin E complex (Homo sapiens, UniProt P24941)
T1 construct: purchased Eurofins 14-475
Experiment: CDK2/Cyclin E fluorescence-based microfluidic mobility shift assay (CDK2 Biochemical Caliper Assay)
Settings: read-out: Biochemical CDK2/CyclinE Caliper IC50
Method in brief: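 Wild-type CDK2/Cyclin E was preincubated with compound and ATP for 30 min at RT before the 5-FAM-QSPKKG peptide was added. Final concentrations were 0.1 nM enzyme, 2000 uM ATP, 1.5 uM peptide and 1% DMSO. After 20 hr at RT and EDTA stop, substrate conversion was read by microfluidic mobility shift over an 11-point, 3-fold dilution series.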

Structure (SMILES)	IC50 [µM]
COCc1cc(C(=O)Nc2cc([C@H]3CC[C@@H](Oc4cncnc4C)C3)[nH]n2)n(C)n1 (single isomer, unassigned) [Example 490]	1 to 100
COCc1cc(C(=O)Nc2cc([C@@H]3CC[C@H](Oc4cncnc4C)C3)[nH]n2)n(C)n1 (single isomer, unassigned) [Example 491]	1 to 100
COCc1cc(C(=O)Nc2cc([C@H]3CC[C@@H](Oc4cc(C(C)C)cnn4)C3)[nH]n2)n(C)n1 (single isomer, unassigned) [Example 492]	≤ 0.1
COCc1cc(C(=O)Nc2cc([C@@H]3CC[C@H](Oc4cc(C(C)C)cnn4)C3)[nH]n2)n(C)n1 (single isomer, unassigned) [Example 493]	0.1 to 0.25
COCc1cc(C(=O)Nc2cc([C@H]3CC[C@@H](Oc4nccnc4C)C3)[nH]n2)n(C)n1 (single isomer, unassigned) [Example 494]	0.25 to 1
COCc1cc(C(=O)Nc2cc([C@@H]3CC[C@H](Oc4nccnc4C)C3)[nH]n2)n(C)n1 (single isomer, unassigned) [Example 495]	0.25 to 1
c1cncc(O[C@@H]2CC[C@H](c3cc(Nc4ncnc5ncccc45)n[nH]3)C2)c1 (single isomer, unassigned) [Example 498]	1 to 100
c1cncc(O[C@H]2CC[C@@H](c3cc(Nc4ncnc5ncccc45)n[nH]3)C2)c1 (single isomer, unassigned) [Example 499]	0.25 to 1
CC(C)NC(=O)O[C@@H]1CC[C@H](c2cc(Nc3nccn4nc(C(F)(F)F)cc34)n[nH]2)C1 (single isomer, unassigned) [Example 500]	≤ 0.1
CC(C)NC(=O)O[C@H]1CC[C@@H](c2cc(Nc3nccn4nc(C(F)(F)F)cc34)n[nH]2)C1 (single isomer, unassigned) [Example 501]	≤ 0.1
COCc1cc(C(=O)Nc2cc([C@H]3CC[C@@H](Oc4nccnc4C(F)F)C3)[nH]n2)n(C)n1 (single isomer, unassigned) [Example 502]	1 to 100
COCc1cc(C(=O)Nc2cc([C@@H]3CC[C@H](Oc4cccnc4C(F)F)C3)[nH]n2)n(C)n1 (single isomer, unassigned) [Example 503]	1 to 100
c1cncc(O[C@@H]2CC[C@H](c3cc(Nc4nccn5nccc45)n[nH]3)C2)c1 (single isomer, unassigned) [Example 504]	1 to 100
c1cncc(O[C@H]2CC[C@@H](c3cc(Nc4nccn5nccc45)n[nH]3)C2)c1 (single isomer, unassigned) [Example 505]	≤ 0.1
COCc1cc(C(=O)Nc2cc([C@H]3CC[C@@H](Oc4ncccc4C(C)C)C3)[nH]n2)n(C)n1 (single isomer, unassigned) [Example 506]	≤ 0.1
COCc1cc(C(=O)Nc2cc([C@@H]3CC[C@H](Oc4ncccc4C(C)C)C3)[nH]n2)n(C)n1 (single isomer, unassigned) [Example 507]	≤ 0.1
COCc1cc(C(=O)Nc2cc([C@H]3CC[C@@H](Oc4nccnc4C(C)C)C3)[nH]n2)n(C)n1 (single isomer, unassigned) [Example 508]	≤ 0.1
CCc1ccnnc1O[C@@H]1CC[C@H](c2cc(NC(=O)c3cc(COC)nn3C)n[nH]2)C1 (single isomer, unassigned) [Example 509]	≤ 0.1
CCc1ccnnc1O[C@H]1CC[C@@H](c2cc(NC(=O)c3cc(COC)nn3C)n[nH]2)C1 (single isomer, unassigned) [Example 510]	≤ 0.1
COCc1cc2c(Nc3cc([C@H]4CC[C@@H](Oc5cccnc5C)C4)[nH]n3)nccn2n1 (single isomer, unassigned) [Example 511]	1 to 100
COCc1cc2c(Nc3cc([C@@H]4CC[C@H](Oc5cccnc5C)C4)[nH]n3)nccn2n1 (single isomer, unassigned) [Example 512]	0.1 to 0.25
COCc1cc2c(Nc3cc([C@H]4CC[C@@H](Oc5cccnc5)C4)[nH]n3)nccn2n1 (single isomer, unassigned) [Example 525]	1 to 100
